Values quoted from earlier work, collected in patent publication US20030088889A1, “Enhancing biological activity of plants” (priority 2002, published 2003).

Key:
estrogen receptor = target: T1, estrogen receptor (Homo sapiens, UniProt P03372)
T1 sequence (P03372 1-595): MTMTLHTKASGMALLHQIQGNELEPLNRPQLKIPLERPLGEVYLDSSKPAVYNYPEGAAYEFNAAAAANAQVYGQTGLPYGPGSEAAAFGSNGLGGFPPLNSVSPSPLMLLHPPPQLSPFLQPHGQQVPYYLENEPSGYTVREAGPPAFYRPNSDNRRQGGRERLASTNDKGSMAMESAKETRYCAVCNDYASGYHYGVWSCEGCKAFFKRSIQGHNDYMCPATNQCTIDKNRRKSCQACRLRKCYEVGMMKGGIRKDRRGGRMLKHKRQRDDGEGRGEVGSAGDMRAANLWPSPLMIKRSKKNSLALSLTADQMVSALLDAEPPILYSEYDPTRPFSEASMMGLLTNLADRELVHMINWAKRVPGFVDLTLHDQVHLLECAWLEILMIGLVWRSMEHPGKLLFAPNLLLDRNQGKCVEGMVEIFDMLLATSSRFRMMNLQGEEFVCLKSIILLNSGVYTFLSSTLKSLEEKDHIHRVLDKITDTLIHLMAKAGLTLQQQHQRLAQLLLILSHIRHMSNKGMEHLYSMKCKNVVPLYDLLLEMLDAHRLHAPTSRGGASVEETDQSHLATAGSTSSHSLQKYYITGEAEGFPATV

[1] = tested on: neuronal reuptake of monoamines and amino acids

Molecule | affinity to the estrogen receptor (estrogen receptor) | inhibition of neuronal reuptake of monoamines and amino acids [1]
O=c1cc(-c2ccc(O)c(-c3c(O)cc(O)c4c(=O)cc(-c5ccc(O)cc5)oc34)c2)oc2cc(O)cc(O)c12 [biapigenin] | weak affinity | 
hyperforin |  | potently inhibit
